“Also recorded” adds a separate entry of the source. Structures can show the parent of a compound that is named as a salt. Starred links: 1 amine or outer side, 2 acyl side, 3 side chain; linkers in the order of their positions; H or OH if unused. Positions of bridges follow the written chain, without caps; N, C: chain ends. Non-standard residues stand in square brackets, D forms with d. Residues, ends and D or L forms follow the SMILES beside them. Chains are numbered I, II in the order given. Actinocin(9to1) = Cc1c2oc3c(C)ccc(C(=O)[*:1])c3nc-2c(C(=O)[*:2])c(N)c1=O; NMeV = CN[C@H](C(=O)O)C(C)C; Sar = CNCC(=O)O
Tested on: HMGA2-FL814 interaction
Assay: PDI-ELISA for HMGA2 binding to DNA oligomer FL814
Design: species or system mammalian
Conditions: for OD450 of the PDI-ELISA in the presence of the compound: 100 nM compound, 100 nM FL814, 1 μM HMGA2, 2×SSCT, OD450 without drug 1.44; for IC50: 25° C., read-out: IC50 for inhibition of binding of HMGA2 to DNA; for inhibition of HMGA2-FL814 interactions: compound at 100 nM in 2×SSCT, FIG. 12 / Table 1

Row | Compound | OD450 of the PDI-ELISA in the presence of the compound | other results
1 | Cl.NCc1ccc2ccc3cccc4ccc1c2c34 [1-Pyrenemethylamine hydrochloride, 1-pyrenemethylamine hydrochloride] | 1.36 | 
2 | Cc1c2oc3c(C)ccc(C(=O)N[C@@H]4C(=O)N[C@H](C(C)C)C(=O)N5CCC[C@H]5C(=O)N(C)CC(=O)N(C)[C@@H](C(C)C)C(=O)O[C@@H]4C)c3nc-2c(C(=O)N[C@@H]2C(=O)N[C@H](C(C)C)C(=O)N3CCC[C@H]3C(=O)N(C)CC(=O)N(C)[C@@H](C(C)C)C(=O)O[C@@H]2C)c(N)c1=O [Actinomycin D, actinomycin D] (I: T[dV]P[Sar][NMeV] / II: T[dV]P[Sar][NMeV]; ester I:1-I:C, II:1-II:C; linker I:N-II:N via Actinocin(9to1)) | 1.03 | 
3 | COc1ccc2cc3[n+](cc2c1OC)CCc1cc2c(cc1-3)OCO2 [Berberine chloride, berberine chloride] | 0.91 | 
4 | COC1C(O)CC(OC2CC(Oc3cc4cc5c(c(O)c4c(O)c3C)C(=O)[C@@H](OC3CC(OC4CC(OC6CC(C)(O)C(OC(C)=O)C(C)O6)C(O)C(C)O4)C(O)C(C)O3)[C@H]([C@H](OC)C(=O)[C@@H](O)[C@@H](C)O)C5)OC(C)C2OC(C)=O)OC1C (stereo partly drawn) [Chromomycin, chromomycin] | 1.3 | 
5 | Cc1c2ccncc2c(C)c2c1[nH]c1ccccc12 [Ellipticine] | 1.39 | 
6 | CN1CCN(c2ccc3[nH]c(-c4ccc5[nH]c(-c6ccc(O)cc6)nc5c4)nc3c2)CC1 [Hoechst 33258] | 0.166 | IC50: 73 ± 9.6 nM; inhibition of HMGA2-FL814 interactions: potently inhibit; also recorded: completely inhibit
7 | O=C1c2ccc3c4ccc5c6c(ccc(c7ccc(c2c37)C(=O)N1CCN1CCCCC1)c64)C(=O)N(CCN1CCCCC1)C5=O [PIPER, N,N′-bis[2-(1-piperidino)ethyl]-3,4,9,10-perylenetetracarboxylic diimide] | 1.27 | 
8 | N=C(N)c1ccc(OCCCCCOc2ccc(C(=N)N)cc2)cc1 [Pentamidine, pentamidine isethionate salt] | 0.65 | 
9 | Nc1ccc2cc3ccc(N)cc3nc2c1 [Proflavine hydrochloride, proflavine hydrochloride] |  | OD450 of the PDI-ELISA in the presence of the compound (hydrochloride): 1.5
10 | C[n+]1ccccc1-c1c2nc(c(-c3cccc[n+]3C)c3ccc([nH]3)c(-c3cccc[n+]3C)c3nc(c(-c4cccc[n+]4C)c4ccc1[nH]4)C=C3)C=C2.[Cl-].[Cl-].[Cl-].[Cl-] [TMPyP2] | 1.7 | enhancement of HMGA2 binding to FL814 (OD450) (titration, 100 nM FL814, 1 μM HMGA2, FIG. 14): not able to stimulate
11 | COc1cccc2c1C(=O)c1c(O)c3c(c(O)c1C2=O)C[C@@](O)(C(C)=O)C[C@@H]3O[C@H]1C[C@H](NCc2ccc(CN[C@H]3C[C@H](O[C@H]4C[C@](O)(C(C)=O)Cc5c(O)c6c(c(O)c54)C(=O)c4c(OC)cccc4C6=O)O[C@@H](C)[C@H]3O)cc2)[C@H](O)[C@H](C)O1 [WP631] | 0.21 | IC50: 41 ± 4.5 nM; inhibition of HMGA2-FL814 interactions: potently inhibit; also recorded: completely inhibit
12 | COc1cccc2c1C(=O)c1c(O)c3c(c(O)c1C2=O)C[C@@](O)(C(C)=O)C[C@@H]3O[C@H]1C[C@H](NCc2cccc(CN[C@@H]3C[C@@H](O[C@H]4C[C@](O)(C(C)=O)Cc5c(O)c6c(c(O)c54)C(=O)c4c(OC)cccc4C6=O)O[C@H](C)[C@@H]3O)c2)[C@H](O)[C@H](C)O1 [WP762] | 0.56 | IC50: 115 ± 19.7 nM; inhibition of HMGA2-FL814 interactions: potently inhibit
13 | O=c1cc(-c2ccccc2)oc2c1ccc1ccccc12 [a-Naphthoflavone, α-naphthoflavone] | 1.91 | 

Now from value to compound, other results behind:

Row | OD450 of the PDI-ELISA in the presence of the compound | Compound | other results
14 | 0.52 | CC(=O)NCC(=O)O.CC(=O)NCC(=O)O.N=C(N)c1ccc(N=NNc2ccc(C(=N)N)cc2)cc1 [Berenil, berenil] | 
15 | 1.38 | COc1cc2cc3c4cc(OC)c(OC)cc4cc[n+]3c(C)c2cc1OC.[Cl-] [Coralyne chloride, coralyne chloride] | 
16 | 0.161 | N=C(N)c1ccc(-c2cc3ccc(C(=N)N)cc3[nH]2)cc1 [DAPI] | IC50: 60.6 ± 8.5 nM; inhibition of HMGA2-FL814 interactions: potently inhibit; also recorded: completely inhibit
17 | 1.3 | CCN1/C(=C/C=C/C=C/c2oc3ccccc3[n+]2CC)Oc2ccccc21.[I-] [DODC] | 
18 | 1.06 | CN(C)c1ccc(C(=C2C=CC(=[N+](C)C)C=C2)c2ccc([N+](C)(C)C)cc2)cc1.[Cl-].[Cl-] [Methyl Green, methyl green] | 
19 | 0.93 | CN(C)c1ccc2nc3ccc(=[N+](C)C)cc-3sc2c1 [Methylene Blue, methylene blue] | 
20 | 1.49 | Nc1ccc2cc3ccc(N)cc3nc2c1 [Proflavine hemisulfate, proflavine hemisulfate] | 
21 | 1.46 | CCN(CC)CCCC(C)Nc1c2ccc(Cl)cc2nc2ccc(OC)cc12 (stereo not drawn) [Quinacrine dihydrochloride, quinacrine dihydrochloride] | 
22 | 1.83 | CN1C(=Cc2cc[n+](C)c3ccccc23)Sc2ccccc21 [Thiazole orange, thiazole orange] | 
23 | 1.56 | O=c1cc(-c2ccccc2)oc2ccc3ccccc3c12 [b-Naphthoflavone, β-naphthoflavone] | 
24 | 1.62 | N-methyl mesoporphyrin [NMM 580] | 

Reference: patent publication US20150253323A1, “METHODS AND KITS FOR HIGH THROUGHPUT SCREENING FOR COMPOUNDS TARGETING DNA-BINDING AND RNA-BINDING PROTEINS” (The Florida International University Board of Trustees, priority 2014, published 2015)
